In data set [1] the target is T1, human neutrophil elastase (HNE) (Homo sapiens, UniProt P08246).
T1 sequence (P08246 30-267): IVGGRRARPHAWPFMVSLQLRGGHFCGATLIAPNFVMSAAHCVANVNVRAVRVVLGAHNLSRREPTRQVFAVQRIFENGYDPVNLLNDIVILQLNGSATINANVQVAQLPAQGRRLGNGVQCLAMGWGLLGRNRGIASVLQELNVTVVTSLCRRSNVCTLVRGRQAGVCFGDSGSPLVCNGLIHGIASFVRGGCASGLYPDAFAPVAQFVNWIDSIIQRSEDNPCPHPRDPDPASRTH
The data set is described as follows: Acute Hemorrhagic Assay: HNE-induced lung hemorrhage. The data set is classed as in vivo, Syrian hamsters. The settings on record: hamster, hamsters, 50 μg/animal HNE intratracheally, read-out: ED50, inhibition of HNE-induced hemorrhage.
Procedure: This assay relies on monitoring only the amount of hemorrhage in the lung following intratracheal administration of human neutrophil elastase (HNE). Hemorrhage is quantified by disrupting erythrocytes recovered in lung lavage fluid and comparing that to dilutions of whole hamster blood. […] Male Syrian hamsters (fasted for 16-18 hours prior to use) are lightly anaesthetised with Brevital sodium (30 mg/kg i.p.). […] Four hours after enzyme administration, the animals are killed with an overdose of pentobarbital sodium, the thorax opened and the lungs and heart removed and the lungs cleared of extraneous material. The excised lungs are lavaged with three changes of 2 ml PBS via a tracheal cannula. The recovered lavages are pooled, the volumes (about 5 mL) are recorded and the lavages stored at 4° C. until assayed. […] The optical densities (OD) of the disrupted lavages and blood samples are determined at 540 nm. The (μL blood equivalents)/(mL lavage) are determined by comparing the OD of the test samples with the OD of the standard curve prepared from whole hamster blood. The total μL equivalents of blood recovered is determined by multiplying recovered lavage volume by the (μL blood equivalents)/(mL lavage) for each sample.

For data set [2] the following is noted: administered in the above in vivo tests (hamsters).
Data set [3] in a line: Hygroscopicity of the anhydrous crystalline form. The data set is classed as physicochemical.
The nature of data set [4]: Epimeric stability in the solid state. The data set is classed as physicochemical. The settings on record: anhydrous form.

Where two headings read alike, the source gives them in different places.

For orientation: ED50 means the midpoint of the dose-response relation. For the compound `COc1ccc(C(=O)N[C@H](C(=O)N2CCC[C@H]2C(=O)N[C@H](C(=O)C(F)(F)F)C(C)C)C(C)C)cc1` [compound of the invention, (S)-1-[(S)-2-(4-methoxybenzamido)-3-methylbutyryl]-N-[(S)-2-methyl-1-(trifluoroacetyl)propyl]pyrrolidine-2-carboxamide], the ED50 in data set [1] (i.v. administration) came to 0.59 mg/kg; in data set [1] (oral dosing), 5.2 mg/kg. In data set [2], the overt toxicity entry was “No overt toxicity”. For the same compound, the hygroscopicity entry in data set [3] is “non-hygroscopic”. Also, the epimeric stability result in data set [4] is recorded as “good epimeric stability”.

These data come from patent US5739157A, “Diastereomeric pure trifluoromethyl ketone peptide derivatives as inhibitors of human leukocyte elastase” (Zeneca Limited, priority 1994, dated 1998).
